The structures appear in SMILES notation.

In one test the target is T1, sGC α1/β1 heterodimer (Homo sapiens, UniProt Q02108+Q02153).
T1 construct: expressed in transfected cells
T1 sequence (Q02108 1-690): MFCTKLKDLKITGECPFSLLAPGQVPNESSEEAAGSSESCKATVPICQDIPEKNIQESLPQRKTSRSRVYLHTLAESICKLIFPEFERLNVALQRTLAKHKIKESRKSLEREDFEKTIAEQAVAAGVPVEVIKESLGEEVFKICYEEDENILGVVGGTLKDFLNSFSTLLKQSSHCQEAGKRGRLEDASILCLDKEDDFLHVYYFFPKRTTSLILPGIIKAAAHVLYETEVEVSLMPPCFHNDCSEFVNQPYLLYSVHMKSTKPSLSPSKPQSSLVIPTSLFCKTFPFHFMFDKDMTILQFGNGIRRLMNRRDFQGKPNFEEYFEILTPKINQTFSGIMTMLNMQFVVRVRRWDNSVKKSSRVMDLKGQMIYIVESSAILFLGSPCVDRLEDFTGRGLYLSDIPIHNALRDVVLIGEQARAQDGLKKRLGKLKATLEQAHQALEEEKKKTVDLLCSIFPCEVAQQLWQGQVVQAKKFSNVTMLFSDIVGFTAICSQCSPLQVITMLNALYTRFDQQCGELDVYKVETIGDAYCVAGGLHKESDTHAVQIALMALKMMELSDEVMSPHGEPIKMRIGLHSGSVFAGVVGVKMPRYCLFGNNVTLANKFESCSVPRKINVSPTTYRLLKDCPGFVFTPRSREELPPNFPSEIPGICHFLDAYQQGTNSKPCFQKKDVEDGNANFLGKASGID
T1 sequence (Q02153 1-619): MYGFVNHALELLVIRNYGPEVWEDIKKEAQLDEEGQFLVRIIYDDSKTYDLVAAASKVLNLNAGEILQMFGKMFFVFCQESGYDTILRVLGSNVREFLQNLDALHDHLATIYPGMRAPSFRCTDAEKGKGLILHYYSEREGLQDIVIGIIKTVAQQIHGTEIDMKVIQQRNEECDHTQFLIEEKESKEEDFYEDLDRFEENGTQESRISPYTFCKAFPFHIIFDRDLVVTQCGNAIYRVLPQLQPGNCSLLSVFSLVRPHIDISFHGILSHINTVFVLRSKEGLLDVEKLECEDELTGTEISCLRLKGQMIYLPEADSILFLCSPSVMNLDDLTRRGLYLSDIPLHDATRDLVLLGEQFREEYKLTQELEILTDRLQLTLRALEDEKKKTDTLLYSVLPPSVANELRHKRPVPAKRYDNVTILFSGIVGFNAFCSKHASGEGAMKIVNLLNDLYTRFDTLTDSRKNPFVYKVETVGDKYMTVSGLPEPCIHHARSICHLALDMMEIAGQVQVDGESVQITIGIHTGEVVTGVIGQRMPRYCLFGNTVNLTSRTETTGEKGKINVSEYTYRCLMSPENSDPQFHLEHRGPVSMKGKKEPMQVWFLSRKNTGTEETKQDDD
As to the kind of experiment: Cell-Based sGC Functional Assay (CASA Assay), cGMP generation in CHO-K1/sGC cells.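 Note: reference Compound A is a published heme-dependent sGC activator.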 Conditions: maximum cGMP production of Compound A set to 100% activation, read-out: % Act. (percent activation relative to Compound A). The method in brief: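 Intracellular cGMP quantified by HTRF competition after 1 h, 37 °C compound exposure, with or without 1 μM DETA-NO, in stable CHO-K1/sGC α1/β1 cells (4×10^5/mL; buffer with 0.5 mM IBMX, 5 mM MgCl2, 10 mM HEPES, 0.05% BSA; 2.5% DMSO). Activation normalized to reference Compound A maximum; 4P fit.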

For test [1], the system named is Spontaneously hypertensive rats (SHR). As to the kind of experiment: Acute Efficacy in Spontaneously Hypertensive Rats (SHR), telemetry blood pressure. The test is classed as in vivo, rat. Conditions: single oral gavage. Summed up: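 Male SHR fitted with aortic telemetry transmitters and recovered 14 days; conscious blood pressure sampled 30 s every 10 min. Single oral gavage dose (vehicle 10% transcutol/20% Cremophor/70% water); hourly SBP change versus prior-day vehicle baseline, reported as maximum peak decrease.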

In the case of `CCCCc1nc(-c2nc(N)c3c(n2)NC(=O)C3(c2nnc(C(F)(F)F)o2)C2CC2)cn2ncnc12` (stereo not drawn) [Example 105A, 4-amino-2-(8-butyl-[1,2,4]triazolo[1,5-a]pyrazin-6-yl)-5-cyclopropyl-5-(5-(trifluoromethyl)-1,3,4-oxadiazol-2-yl)-5H-pyrrolo[2,3-d]pyrimidin-6(7H)-one], the Emax on sGC α1/β1 heterodimer stood at 176%. In test [1] (P.O. 0.3 mpk), the “Maximum peak decrease of systolic blood pressure (SBP) in SHR, Cat.” value (from here on “Maximum peak decrease”) was “B (Category B=SBP in SHRs 20-40 mmHg)”.

Regarding `Nc1nc(-c2cn3ncnc3c(CCCC(F)(F)F)n2)nc2c1C(c1nnc(C(F)(F)F)o1)(C1CC1)C(=O)N2` (stereo not drawn) [Example 106A, 4-amino-5-cyclopropyl-2-(8-(4,4,4-trifluorobutyl)-[1,2,4]triazolo[1,5-a]pyrazin-6-yl)-5-(5-(trifluoromethyl)-1,3,4-oxadiazol-2-yl)-5H-pyrrolo[2,3-d]pyrimidin-6(7H)-one], the Emax at sGC α1/β1 heterodimer was determined as 95%. Besides, the “Maximum peak decrease” value in test [1] (P.O. 0.3 mpk) is given as “C (Category C=SBP in SHRs >40 mmHg)”.

For `Nc1nc(-c2cn3ncnc3c(CCC(F)(F)C(F)(F)F)n2)nc2c1C(c1nnc(C3CC3)o1)(C1CC1)C(=O)N2` (stereo not drawn) [Example 107A, 4-amion-5-cyclopropyl-5-(5-cyclopropyl-1,3,4-oxadiazol-2-yl)-2-(8-(3,3,4,4,4-pentafluorobutyl)-[1,2,4]triazolo[1,5-a]pyrazin-6-yl)-5H-pyrrolo[2,3-d]pyrimidin-6(7H)-one], the Emax on sGC α1/β1 heterodimer came to 76%. The “Maximum peak decrease” value in test [1] (P.O. 3 mpk) is given as “C (Category C=SBP in SHRs >40 mmHg)”.

With `CC1(c2ccc(O)cn2)C(=O)Nc2nc(-c3cn4ncnc4c(CCC(F)(F)C(F)(F)F)n3)nc(N)c21` (stereo not drawn) [Example 110A, 4-Amino-5-(5-hydroxypyridin-2-yl)-5-methyl-2-(8-(3,3,4,4,4-pentafluorobutyl)-[1,2,4]triazolo[1,5-a]pyrazin-6-yl)-5,7-dihydro-6H-pyrrolo[2,3-d]pyrimidin-6-one], the Emax on sGC α1/β1 heterodimer was 70%. The “Maximum peak decrease” value in test [1] (P.O. 3 mpk) is recorded as “B (Category B=SBP in SHRs 20-40 mmHg)”.

Turning to `Nc1nc(-c2cn3ncnc3c(CCCC(F)(F)F)n2)nc2c1C(c1ccc(O)cn1)(C1CC1)C(=O)N2` (stereo not drawn) [Example 112A, 4-amino-5-cyclopropyl-5-(5-hydroxypyridin-2-yl)-2-(8-(4,4,4-trifluorobutyl)-[1,2,4]triazolo[1,5-a]pyrazin-6-yl)-5H-pyrrolo[2,3-d]pyrimidin-6(7H)-one], the Emax at sGC α1/β1 heterodimer turned out to be 91%. Moreover, the “Maximum peak decrease” value in test [1] (P.O. 3 mpk) is on record as “A (Category A=SBP in SHRs <20 mmHg)”.

Take `Nc1nc(-c2cn3ncnc3c(CCC(F)(F)C(F)(F)F)n2)nc2c1C(c1ccccn1)(C1CC1)C(=O)N2` (stereo not drawn) [Example 114A, 4-amino-5-cyclopropyl-2-(8-(3,3,4,4,4-pentafluorobutyl)-[1,2,4]triazolo[1,5-a]pyrazin-6-yl)-5-(pyridin-2-yl)-5,7-dihydro-6H-pyrrolo[2,3-d]pyrimidin-6-one]: the Emax at sGC α1/β1 heterodimer came to 122%. Moreover, in test [1] (P.O. 1 mpk), the “Maximum peak decrease” value is reported as “B (Category B=SBP in SHRs 20-40 mmHg)”.

`Nc1nc(-c2cn3ncnc3c(CCCC(F)(F)F)n2)nc2c1C(c1ccccn1)(C1CC1)C(=O)N2` (stereo not drawn) [Example 115A, 4-amino-5-cyclopropyl-5-(pyridin-2-yl)-2-(8-(4,4,4-trifluorobutyl)-[1,2,4]triazolo[1,5-a]pyrazin-6-yl)-5H-pyrrolo[2,3-d]pyrimidin-6(7H)-one]: the Emax at sGC α1/β1 heterodimer was found to be 118%. Moreover, in test [1] (P.O. 1 mpk), the “Maximum peak decrease” value is given as “B (Category B=SBP in SHRs 20-40 mmHg)”.

Regarding `C[C@@]1(c2ccc(F)cc2)C(=O)Nc2nc(-c3cn4ncnc4c(CCC(F)(F)C(F)(F)F)n3)nc(O)c21` [Example 119A, (S)-5-(4-fluorophenyl)-4-hydroxy-5-methyl-2-(8-(3,3,4,4,4-pentafluorobutyl)-[1,2,4]triazolo[1,5-a]pyrazin-6-yl)-5,7-dihydro-6H-pyrrolo[2,3-d]pyrimidin-6-one], the Emax on sGC α1/β1 heterodimer came to 124%. For the same compound, the “Maximum peak decrease” value in test [1] (P.O. 1 mpk) is recorded as “B (Category B=SBP in SHRs 20-40 mmHg)”.

`CC1(c2ccc(Cl)cn2)C(=O)Nc2nc(-c3cn4ncnc4c(CCC(F)(F)C(F)(F)F)n3)nc(O)c21` (stereo not drawn) [Example 120A, 5-(5-chloropyridin-2-yl)-4-hydroxy-5-methyl-2-(8-(3,3,4,4,4-pentafluorobutyl)-[1,2,4]triazolo[1,5-a]pyrazin-6-yl)-5H-pyrrolo[2,3-d]pyrimidin-6(7H)-one]: the Emax on sGC α1/β1 heterodimer turned out to be 107%. Further, in test [1] (P.O. 1 mpk), the “Maximum peak decrease” value was “B (Category B=SBP in SHRs 20-40 mmHg)”.

Regarding `CC1(c2ccc(Cl)c(F)c2)C(=O)Nc2nc(-c3cn4ncnc4c(CCC(F)(F)C(F)(F)F)n3)nc(O)c21` (stereo not drawn) [Example 121B, 5-(4-chloro-3-fluorophenyl)-4-hydroxy-5-methyl-2-(8-(3,3,4,4,4-pentafluorobutyl)-[1,2,4]triazolo[1,5-a]pyrazin-6-yl)-5H-pyrrolo[2,3-d]pyrimidin-6(7H)-one], the Emax on sGC α1/β1 heterodimer stood at 222%. Further, the “Maximum peak decrease” value in test [1] (P.O. 1 mpk) is given as “B (Category B=SBP in SHRs 20-40 mmHg)”.

`CC1(c2ccc(F)cn2)C(=O)Nc2nc(-c3cn4ncnc4c(CCC(F)(F)C(F)(F)F)n3)nc(O)c21` (stereo not drawn) [Example 122B, 5-(5-fluoropyridin-2-yl)-4-hydroxy-5-methyl-2-(8-(3,3,4,4,4-pentafluorobutyl)-[1,2,4]triazolo[1,5-a]pyrazin-6-yl)-5H-pyrrolo[2,3-d]pyrimidin-6(7H)-one]: the Emax at sGC α1/β1 heterodimer amounted to 100%. Besides, in test [1] (P.O. 1 mpk), the “Maximum peak decrease” value is listed as “B (Category B=SBP in SHRs 20-40 mmHg)”.

Consider `CC1(c2cncc(F)c2)C(=O)Nc2nc(-c3cn4ncnc4c(CCC(F)(F)C(F)(F)F)n3)nc(O)c21` (stereo not drawn) [Example 125A, 5-(5-fluoropyridin-3-yl)-4-hydroxy-5-methyl-2-(8-(3,3,4,4,4-pentafluorobutyl)-[1,2,4]triazolo[1,5-a]pyrazin-6-yl)-5H-pyrrolo[2,3-d]pyrimidin-6(7H)-one], for which, at sGC α1/β1 heterodimer, the Emax worked out at 87%. For the same compound, the “Maximum peak decrease” value in test [1] (P.O. 3 mpk) was “A (Category A=SBP in SHRs <20 mmHg)”.

As for `Cc1nc2c(CCC(F)(F)C(F)(F)F)nc(-c3nc(O)c4c(n3)NC(=O)C4(C)c3ccc(Cl)c(F)c3)cn2n1` (stereo not drawn) [Example 132B, 5-(4-chloro-3-fluorophenyl)-4-hydroxy-5-methyl-2-(2-methyl-8-(3,3,4,4,4-pentafluorobutyl)-[1,2,4]triazolo[1,5-a]pyrazin-6-yl)-5H-pyrrolo[2,3-d]pyrimidin-6(7H)-one], the Emax on sGC α1/β1 heterodimer turned out to be 119%. The “Maximum peak decrease” value in test [1] (P.O. 1 mpk) is “A (Category A=SBP in SHRs <20 mmHg)”.

For `CC1(c2ccc(Cl)cn2)C(=O)Nc2nc(-c3cn4ncnc4c(CCCC(F)(F)F)n3)nc(O)c21` (stereo not drawn) [Example 134A, 5-(5-chloropyridin-2-yl)-4-hydroxy-5-methyl-2-(8-(4,4,4-trifluorobutyl)-[1,2,4]triazolo[1,5-a]pyrazin-6-yl)-5H-pyrrolo[2,3-d]pyrimidin-6(7H)-one], the Emax on sGC α1/β1 heterodimer came to 134%. The “Maximum peak decrease” value in test [1] (P.O. 1 mpk) is recorded as “B (Category B=SBP in SHRs 20-40 mmHg)”.

On to `C[C@@]1(c2ccc(F)cc2)C(=O)Nc2nc(-c3cn4ncnc4c(CCCC(F)(F)F)n3)nc(O)c21` [Example 135A, 5-(4-fluorophenyl)-4-hydroxy-5-methyl-2-(8-(4,4,4-trifluorobutyl)-[1,2,4]triazolo[1,5-a]pyrazin-6-yl)-5,7-dihydro-6H-pyrrolo[2,3-d]pyrimidin-6-one], for which, on sGC α1/β1 heterodimer, the Emax was found to be 108%. Further, in test [1] (P.O. 1 mpk), the “Maximum peak decrease” value is “B (Category B=SBP in SHRs 20-40 mmHg)”.
